Results reported in patent US8663915B2, “Methods of controlling tumorigenesis and diagnosing the risk thereof” (Agency for Science, Technology and Research, priority 2007, dated 2014).

Tests used:
[1] = test system: ERK phosphorylation in MCF10A-RCP cells
Protocol: Western blot analysis. Whole cell lysates were prepared using RIPA buffer. The proteins were separated by SDS-PAGE and transferred to Hybond-P PVDF membrane (GE Healthcare). Antibodies to RCP (Genway, Catalog Number (CN): 15-288-21574A), β-actin (Sigma, CN: A5441), phospho-Akt (Cell Signaling Technology, CN: 9271), Akt (Cell Signaling Technology, CN: 9272), phospho-Erk (Cell Signaling Technology, CN: 9101), and Erk (Cell Signalling, CN: 9102) were used to probe the membrane, and antibody-protein complex was detected by HRP-conjugated antibodies and ECL (Amersham Biosciences).
For the MAPK inhibition assays, cells were treated with MEK inhibitor U0126 (Promega) overnight in medium with 0.5% serum before being re-plated into 96-well plates.

[2] = test system: MCF10A-RCP cells; conditions: 30 uM U0126
Protocol: Cell proliferation and colony formation. Cells were plated at a density of 5000 cells/well in 96-well plates, and cell proliferation was measured in quadruplicate (ie, 4 wells per condition) using WST-1 (Roche) according to the manufacturer's protocol. For the MAPK inhibition assays, cells were treated with MEK inhibitor U0126 (Promega) overnight in medium with 0.5% serum before being re-plated into 96-well plates.

N#CC(=C(/N)Sc1ccccc1N)/C(C#N)=C(\N)Sc1ccccc1N [U0126]
RCP-induced phosphorylation of ERK ([1]; 30 μM of U0126): reduced to baseline
ERK phosphorylation status ([1]; range of U0126 concentrations): concentration dependent
proliferation [2]: reduction of proliferation down to control levels
